Tested on: LhCE
Experiment: UV-Vis Michaelis-Menten hydrolysis assay
Assay type: biochemical, Lactobacillus helveticus
Conditions: 50 mM HEPES pH 8, 21 °C, 10 nM enzyme

Km (substrate stock in 5% ethanol) [µM] | Km [µM] | SMILES
386 ± 46 |  | CCOC(=O)/C=C/c1ccc(O)c(OC)c1 [ethyl ferulate]
 | 147 ± 41 | O=C(/C=C/c1ccc(O)c(O)c1)O[C@@H]1C[C@](O)(C(=O)O)C[C@@H](O)[C@H]1O [chlorogenic acid]

— paper doi:10.1101/2023.05.30.542953v1 (biorxiv, 2023)
